# Test results reported in patent publication US20170112831A1, “USE OF CCR1 ANTAGONISTS AS A TREATMENT FOR TUMORS OF THE CENTRAL NERVOUS SYSTEM” (priority 2015, published 2017).
# Test system: GL261 murine glioma cells
# Test: Microglia stimulated glioma invasion, Matrigel-coated invasion chamber coculture assay
# Format: cell-based
# Details: 250 nM CCR1 antagonist, 48 hours, GL261 cocultured with microglia, vs DMSO; FIG. 1
# Method: Microglial stimulation of glioma invasion. CCR1 antagonists were screened using the glioblastoma cells and microglia invasion assay described below.
# GL261 murine glioma cells expressing the fluorescent protein m-Cherry and microglial (MG) cells stained with cell tracker green (CMFDA; Invitrogen) were cocultured on Matrigel-coated invasion chambers (Becton, Dickinson and Company). Cells were plated at a density per invasion chamber of 100,000 labeled GL261 cells with an additional 150,000 unlabelled GL261 cells or with 50,000 unlabelled GL261 and 50,000 MG cells in M-SFM with 0.3% BSA. Invasion chambers were incubated for 48 hours in the presence of DMSO, or 250 nM of the CCR1 antagonist, after which they were fixed in 3.7% paraformaldehyde in PBS. Imaging of the cells on the bottom of the filter was performed using an AMG EVOS epifluorescent microscope. The extent of invasion was quantified by counting the number of glioblastoma cells (green) that were on the underside of the filter in at least seven 10× fields. The final number of invasive cells in the control was multiplied by 0.75 to normalize.
structure (smiles),measurement,value
Cc1nnc([C@H]2CCCN2C(=O)Nc2ccc(C(F)(F)F)cc2)n1Cc1ccc(Cl)cc1 [Compound #1],reduction in the number of invasive glioma cells,greater than 50%
